In patent US20030105045A1, “Artificial transcriptional factors and methods of use” (priority 2000, published 2003):

Experiments:
[1] = tested on: GAL4 DNA-binding domain fusion; conditions: cited from earlier work
[2] = tested on: transcription template with 5 copies of ATF binding sites upstream of minimal HSV thymidine kinase promoter driving CAT reporter gene, BHK-21 cells; assay: Transient cotransfection CAT reporter assay in BHK-21 cells, template with ATF binding sites; assay type: cell-based; conditions: 50 nM ATFs, 1 microgram plasmid, LipofectAMINE, harvested 48 hours after transfection
Text: The ability of ATFs to activate transcription in vivo was examined by transient cotransfection assays in BHK-21 tissue culture cells. As a control template, a reporter construct containing the minimal HSV thymidine kinase promoter driving the expression of chloramphenicol acetyl transferase (CAT) reporter gene was used. The transcription template was constructed by incorporating the oligonucleotide with 5 copies of ATF binding sites in between the HindIII and BamHI restriction sites of the polylinker upstream of the control template promoter (FIG. 6A). The transfection mixture contained 1 microgram of the plasmid DNA and 50 nM ATFs. Transfections were performed by using polycationic lipid LipofectAMINE (Life Technologies). Cells were harvested 48 hours after transfection and CAT assays were performed using FAST CAT (Molecular Probes, Inc.) as substrate, and visualized and quantitated on a Fluorimager (Molecular Dynamics). Each reporter construct shown in FIG. 6A was transfected into cells with and without ATF molecules and the activation signal was measured with standard methods.

[3] = tested on: ATF assay template containing five ATF binding sites in the promoter; assay: In vitro run-off transcription assay with HeLa crude nuclear extract, ATF assay template; assay type: biochemical; conditions: for level/strength of transcriptional activation in words (compared with GAL4-VP16 or basal): ATF assay template
Text: (§1) Two 26-base oligonucleotides having the sequence of SEQ. ID NO: 9 and SEQ. ID NO: 10 were annealed and ligated to yield a series of double-stranded DNA fragments containing multiple binding sites for triple-helix formation. A fragment containing 5 copies of the site as shown in the duplex of SEQ ID NO: 9 and SEQ ID NO: 10 was purified by agarose gel electrophoresis and inserted into the HindIII restriction site in the polylinker of an embodiment of the G5E4T series of transcription templates.
(§2) In FIG. 3A, the control template contains […] five GAL4 and five ATF binding sites incorporated in the promoter at −53 and −155 bp relative to the +1 transcription start site, respectively; and in FIG. 3B the ATF assay template contains five ATF binding sites incorporated at −65 bp.
The resulting plasmids were linearized by digestion with EcoRI, purified and the linear templates were stored in ultra-pure water at −20° C. The transcription assay was initiated by incubation of 200 ng of linearized transcription templates with ATFs in the binding buffer containing 10 mM Tris pH 8, 40 mM MgCl2 and 100 mM KCl at room temperature for 24 hours. The total volume of binding reaction was 5 microliters. After binding reaction, salt and buffer conditions were adjusted by the addition of 5 microliters of water, 6 microliters of 1×HeLa buffer (20 mM HEPES pH 7.9, 100 mM KCl, 0.2 mM EDTA, 0.5 mM DTT, 20% glycerol) and 5 microliters of HeLa crude nuclear extract (Promega, Madison Wis.). An aliquot of GAL4-VP16 protein (1 microliter total) was added to the control templates and all reactions were pre-incubated for 10 minutes at 30 degrees C. The transcription was initiated by the addition of 1 microliter of a mixture of ribonucleotide triphosphates (ATP, CTP, GTP, 10 mM each) and 0.5 microliters of ^32P-alpha-UTP (NEN, Boston, Mass.). After further incubation at 30° C. for 30 minutes all transcription reactions were terminated by the addition of 100 microliters of stop buffer (0.5 M sodium acetate, 0.2% SDS, 10 mM EDTA, 1 microgram/ml glycogen, 1 microgram/ml Proteinase K). The reactions were vortexed, incubated at 37° C. for 10 minutes, extracted with phenol/chloroform, and precipitated with 250 microliters of ice-cold ethanol. The pellets were dissolved in 20 microliters of standard denaturing formamide/dye mix and were loaded and run on a denaturing 6% polyacrylamide gel.
(§3) The templates for in vitro transcription were made by inserting 5 direct repeats of a triple helix binding DNA sequence having a sequence of SEQ ID NO: 11 (5′[…]3′) into the Hind III restriction site in the polylinker of the GnE4T series of transcription templates (Lin, Y. S. et al., Cell 5A: 659-664 (1988)). […] The quantitation of signals was performed with Fuji MacBAS software.

[4] = tested on: control template containing five GAL4 binding sites; assay: In vitro run-off transcription assay with HeLa crude nuclear extract, control template; assay type: biochemical; conditions: data not shown
Text: as §1, §2
The resulting plasmids were linearized by digestion with EcoRI, purified and the linear templates were stored in ultra-pure water at −20° C. […]
as §3

**Q.** Which “activity when fused to the GAL4 DNA binding domain through recombinant DNA techniques” value ([1]; Seipel et al.) does the source give for “CGSDALDDFDLDML (synthetic composition useful as artificial transcriptional factor) [14-mer peptide derived from VP16]” here?
**A.** inactive

**Q.** Which “transcriptional activation above the basal level” value [2] does the source give for “ATF(29): 22-mer TFO (SEQ ID NO:5), 5′ polyglycol linker, crosslinker-coupled 29 amino acid VP16 peptide (SEQ ID NO:8) (chain 1 ttgtggtgggtggggtgtgggt; chain 2 CGSDALDDFDLDMLGSDALDDFDLDMLGS; polyglycol linker, crosslinker conjugation; synthetic composition useful as artificial transcriptional factor)” here?
**A.** 5 fold

**Q.** What about the “level/strength of transcriptional activation in words (compared with GAL4-VP16 or basal)” value ([3]; FIG. 4 and FIG. 5) of the same substance?
**A.** comparable to the level that could be obtained with GAL4-VP16

**Q.** What about the “level/strength of transcriptional activation in words (compared with GAL4-VP16 or basal)” value ([3]; FIG. 4 and FIG. 5, listed as ATF) of the same substance?
**A.** equal to, if not higher than

**Q.** And the “ATF concentrations at which these levels of activation (30-40 fold) are obtained” value ([3]; further increase in concentration leads to diminishing activation)?
**A.** 2 to 40 nM

**Q.** And the “activation of transcription above basal level” value ([3]; linearized template with five ATF binding sites, quantitation of 250 base RNA transcript)?
**A.** 30-40 fold

**Q.** And the “activation of transcription from control templates or other templates lacking ATF binding sites” value [4]?
**A.** does not activate transcription

**Q.** With “CGSDALDDFDLDMLGSDALDDFDLDMLGS (synthetic composition useful as artificial transcriptional factor) [SEQ ID NO: 8]” as the substance, how does the “activity retained relative to full-length VP 16 when fused to the GAL4 DNA-binding domain” value ([1]; Seipel et al. 1992, Nyanguile et al. 1997) read?
**A.** about 70%
